According to article PMC6199744, “Development of Chemical Proteomics for the Folateome and Analysis of the Kinetoplastid Folateome” (ACS Infectious Diseases, 2018):
Where two headings read alike, the source gives them in different places.

What was measured:
[1] = molecular target: GLYCERALDEHYDE 3-PHOSPHATE DEHYDROGENASE, GLYCOSOM (TB427.06.4300) (Trypanosoma brucei brucei, UniProt P22512); assay: Multitargeted bead mixture competition; assay type: binding, T. brucei; settings: for fold change / fold change - vehicle control: protein TB427.06.4300 GLYCERALDEHYDE 3-PHOSPHATE DEHYDROGENASE, GLYCOSOMAL; for fold change: vehicle control = 1
[2] = system: glutamate 5′-kinase (LmjF.26.2710); assay: Multitargeted bead mixture competition; assay type: binding, Leishmania; settings: for fold change vs vehicle control / fold change: protein LMJF.26.2710 GLUTAMATE 5-KINASE, PUTATIVE; for fold change: vehicle control = 1
[3] = molecular target: T1, HeLa cell extract proteins (Homo sapiens, UniProt P35637); assay type: binding
T1 construct: endogenous in cells; host or cells: HeLa cell extract
T1 sequence (P35637 1-526): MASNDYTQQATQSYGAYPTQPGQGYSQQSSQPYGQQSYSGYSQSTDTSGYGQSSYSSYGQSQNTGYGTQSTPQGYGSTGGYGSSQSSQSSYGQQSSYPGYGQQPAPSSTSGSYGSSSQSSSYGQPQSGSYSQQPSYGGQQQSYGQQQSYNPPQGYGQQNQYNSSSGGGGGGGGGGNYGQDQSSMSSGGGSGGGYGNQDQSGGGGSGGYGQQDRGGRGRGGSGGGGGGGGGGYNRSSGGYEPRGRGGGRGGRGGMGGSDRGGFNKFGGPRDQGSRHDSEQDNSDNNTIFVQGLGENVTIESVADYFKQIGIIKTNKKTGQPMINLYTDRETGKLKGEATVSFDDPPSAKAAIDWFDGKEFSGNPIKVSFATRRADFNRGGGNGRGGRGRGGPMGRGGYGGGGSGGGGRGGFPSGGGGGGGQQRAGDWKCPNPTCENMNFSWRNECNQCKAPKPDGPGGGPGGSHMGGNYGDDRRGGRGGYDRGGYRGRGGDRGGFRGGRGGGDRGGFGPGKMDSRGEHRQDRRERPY

[4] = molecular target: T2, HeLa cell extract proteins (Homo sapiens, UniProt P57088); assay type: binding
T2 construct: endogenous in cells; host or cells: HeLa cell extract
T2 sequence (P57088 1-247): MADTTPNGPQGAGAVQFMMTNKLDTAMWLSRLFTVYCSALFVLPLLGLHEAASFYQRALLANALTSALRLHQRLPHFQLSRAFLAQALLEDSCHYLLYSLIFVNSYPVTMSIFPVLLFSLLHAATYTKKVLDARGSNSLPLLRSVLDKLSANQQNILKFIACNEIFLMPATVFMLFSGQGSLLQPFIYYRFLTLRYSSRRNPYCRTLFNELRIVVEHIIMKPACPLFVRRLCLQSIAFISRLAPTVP

[5] = molecular target: T3, HeLa cell extract proteins (Homo sapiens, UniProt P42356); assay type: binding
T3 construct: endogenous in cells; host or cells: HeLa cell extract

[6] = molecular target: T4, HeLa cell extract proteins (Homo sapiens, UniProt P27348); assay type: binding
T4 construct: endogenous in cells; host or cells: HeLa cell extract
T4 sequence (P27348 1-245): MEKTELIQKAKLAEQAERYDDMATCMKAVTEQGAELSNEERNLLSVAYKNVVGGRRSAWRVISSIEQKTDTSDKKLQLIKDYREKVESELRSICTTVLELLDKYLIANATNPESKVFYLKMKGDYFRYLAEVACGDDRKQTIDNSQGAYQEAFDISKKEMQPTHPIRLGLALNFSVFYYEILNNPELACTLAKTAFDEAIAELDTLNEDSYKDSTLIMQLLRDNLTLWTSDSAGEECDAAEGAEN

DHFR-TS = DHFR-TS (Leishmania major, UniProt P07382); assay type: binding; settings: for fold change: LMJF.06.0860 DIH[…]-T[…], vehicle control = 1
TS = molecular target: T5, TS (Homo sapiens, UniProt P04818); assay: Multitargeted bead mixture competition, HeLa cell extract; assay type: binding
T5 construct: endogenous in cells; host or cells: HeLa cell extract

[7] = system: CHOLINE KINASE (TB427TMP.18.0017); assay: Multitargeted bead mixture competition; assay type: binding, T. brucei; settings: for fold change vs vehicle control / fold change - vehicle control: protein TB427TMP.18.0017 CHOLINE KINASE; for fold change vs vehicle control: vehicle control = 1
[8] = molecular target: T6, MTHFS, the 5-formyl-THF-cyclo-ligase (Homo sapiens, UniProt P49914); assay: Multitargeted bead mixture competition, HeLa cell extract; assay type: binding; settings: for binding to MTHFS: bead mixture, HeLa cell extract
T6 sequence (P49914 1-203): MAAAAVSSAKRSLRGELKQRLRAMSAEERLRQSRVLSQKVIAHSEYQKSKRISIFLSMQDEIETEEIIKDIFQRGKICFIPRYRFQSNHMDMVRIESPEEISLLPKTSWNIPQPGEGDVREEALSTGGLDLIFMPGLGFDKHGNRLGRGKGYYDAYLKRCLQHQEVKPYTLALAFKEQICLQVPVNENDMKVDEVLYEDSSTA

[9] = system: dynein associated protein (Tb09.211.4920); assay: Multitargeted bead mixture competition; assay type: binding, T. brucei; settings: for fold change / fold change - vehicle control: protein TB09.211.4920 DYNEIN-ASSOCIATED PROTEIN, PUTATIVE; for fold change: vehicle control = 1
[10] = HeLa, protein FUS (FUS-LIKE PROTEIN (FRAGMENT))
[11] = protein LMJF.06.0860, DIH[…]-T[…]

T5 sequence (P04818 whole entry): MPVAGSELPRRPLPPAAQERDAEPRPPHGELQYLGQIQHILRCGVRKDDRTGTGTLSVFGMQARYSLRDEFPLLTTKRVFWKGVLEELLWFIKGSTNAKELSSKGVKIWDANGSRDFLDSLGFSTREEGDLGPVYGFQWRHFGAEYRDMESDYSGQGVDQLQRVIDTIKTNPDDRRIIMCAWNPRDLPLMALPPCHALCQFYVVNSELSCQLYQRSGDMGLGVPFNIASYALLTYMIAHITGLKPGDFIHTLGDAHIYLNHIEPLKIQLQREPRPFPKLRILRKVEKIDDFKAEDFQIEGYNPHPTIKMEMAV
Chain of DHFR-TS (P07382 whole entry): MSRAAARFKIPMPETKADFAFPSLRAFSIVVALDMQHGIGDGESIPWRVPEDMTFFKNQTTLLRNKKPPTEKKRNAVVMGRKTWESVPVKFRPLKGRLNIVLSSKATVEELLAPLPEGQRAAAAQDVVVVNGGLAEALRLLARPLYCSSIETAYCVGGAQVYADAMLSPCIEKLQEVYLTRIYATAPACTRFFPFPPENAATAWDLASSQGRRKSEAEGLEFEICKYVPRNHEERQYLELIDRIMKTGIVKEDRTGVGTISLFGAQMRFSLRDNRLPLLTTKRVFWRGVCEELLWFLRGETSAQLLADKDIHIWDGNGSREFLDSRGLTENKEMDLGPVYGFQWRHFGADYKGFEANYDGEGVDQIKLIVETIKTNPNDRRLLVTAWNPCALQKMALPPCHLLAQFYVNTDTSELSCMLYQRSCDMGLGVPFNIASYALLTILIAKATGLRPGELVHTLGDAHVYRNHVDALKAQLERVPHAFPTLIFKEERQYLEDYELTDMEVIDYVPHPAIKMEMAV
T3 sequence (P42356 whole entry): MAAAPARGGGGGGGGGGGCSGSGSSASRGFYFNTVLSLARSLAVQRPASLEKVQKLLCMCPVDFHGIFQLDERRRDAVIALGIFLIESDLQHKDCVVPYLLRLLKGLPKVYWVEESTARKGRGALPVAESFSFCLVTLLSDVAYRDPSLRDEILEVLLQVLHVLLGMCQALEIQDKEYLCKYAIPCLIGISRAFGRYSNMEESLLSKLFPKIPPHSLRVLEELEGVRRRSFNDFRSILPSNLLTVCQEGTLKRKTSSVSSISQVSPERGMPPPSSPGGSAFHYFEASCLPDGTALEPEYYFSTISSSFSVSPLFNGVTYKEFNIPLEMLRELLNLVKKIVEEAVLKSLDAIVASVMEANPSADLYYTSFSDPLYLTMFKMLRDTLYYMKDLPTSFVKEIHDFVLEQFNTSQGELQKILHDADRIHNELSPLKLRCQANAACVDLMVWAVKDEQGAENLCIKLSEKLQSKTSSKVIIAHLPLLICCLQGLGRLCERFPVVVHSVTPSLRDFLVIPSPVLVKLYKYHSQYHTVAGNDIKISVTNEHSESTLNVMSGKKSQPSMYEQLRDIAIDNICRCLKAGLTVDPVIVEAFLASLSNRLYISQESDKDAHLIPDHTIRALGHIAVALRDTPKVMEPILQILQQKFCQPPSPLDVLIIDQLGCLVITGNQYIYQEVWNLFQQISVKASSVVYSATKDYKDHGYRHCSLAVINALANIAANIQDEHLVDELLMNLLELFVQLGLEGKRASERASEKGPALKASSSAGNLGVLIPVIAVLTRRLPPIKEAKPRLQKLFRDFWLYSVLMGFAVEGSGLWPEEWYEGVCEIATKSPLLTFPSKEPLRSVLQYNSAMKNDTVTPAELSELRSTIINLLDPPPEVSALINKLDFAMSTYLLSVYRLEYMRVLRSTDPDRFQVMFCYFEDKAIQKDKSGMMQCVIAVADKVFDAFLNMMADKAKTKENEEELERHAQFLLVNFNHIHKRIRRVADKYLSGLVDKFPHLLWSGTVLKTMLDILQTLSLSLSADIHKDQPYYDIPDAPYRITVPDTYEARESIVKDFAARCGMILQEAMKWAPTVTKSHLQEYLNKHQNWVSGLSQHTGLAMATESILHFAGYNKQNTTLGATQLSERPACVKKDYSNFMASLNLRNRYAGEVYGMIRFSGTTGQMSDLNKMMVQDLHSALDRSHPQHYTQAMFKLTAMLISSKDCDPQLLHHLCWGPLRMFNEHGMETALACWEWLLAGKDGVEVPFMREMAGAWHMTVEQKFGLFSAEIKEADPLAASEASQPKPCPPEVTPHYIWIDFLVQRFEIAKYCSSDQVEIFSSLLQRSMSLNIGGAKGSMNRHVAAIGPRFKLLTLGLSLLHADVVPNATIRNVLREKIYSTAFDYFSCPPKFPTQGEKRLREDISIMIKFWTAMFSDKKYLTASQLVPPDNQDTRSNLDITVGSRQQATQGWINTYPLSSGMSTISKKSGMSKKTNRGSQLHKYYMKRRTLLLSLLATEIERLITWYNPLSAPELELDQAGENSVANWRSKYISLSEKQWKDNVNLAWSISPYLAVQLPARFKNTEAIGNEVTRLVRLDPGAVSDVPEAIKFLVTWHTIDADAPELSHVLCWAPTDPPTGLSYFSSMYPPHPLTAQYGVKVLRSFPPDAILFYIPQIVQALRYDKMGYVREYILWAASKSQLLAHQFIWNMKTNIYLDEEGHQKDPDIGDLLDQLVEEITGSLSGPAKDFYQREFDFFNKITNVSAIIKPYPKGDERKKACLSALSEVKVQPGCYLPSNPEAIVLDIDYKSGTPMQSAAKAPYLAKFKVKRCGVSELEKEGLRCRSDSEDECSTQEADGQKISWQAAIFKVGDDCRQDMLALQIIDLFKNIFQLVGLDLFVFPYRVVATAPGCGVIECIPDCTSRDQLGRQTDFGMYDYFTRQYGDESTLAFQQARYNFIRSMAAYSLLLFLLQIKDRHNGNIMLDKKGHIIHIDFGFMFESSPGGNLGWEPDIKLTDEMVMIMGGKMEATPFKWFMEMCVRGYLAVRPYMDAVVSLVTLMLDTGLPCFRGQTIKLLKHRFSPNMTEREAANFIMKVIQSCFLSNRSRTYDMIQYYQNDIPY
Chain of UniProt P22512 (P22512 whole entry): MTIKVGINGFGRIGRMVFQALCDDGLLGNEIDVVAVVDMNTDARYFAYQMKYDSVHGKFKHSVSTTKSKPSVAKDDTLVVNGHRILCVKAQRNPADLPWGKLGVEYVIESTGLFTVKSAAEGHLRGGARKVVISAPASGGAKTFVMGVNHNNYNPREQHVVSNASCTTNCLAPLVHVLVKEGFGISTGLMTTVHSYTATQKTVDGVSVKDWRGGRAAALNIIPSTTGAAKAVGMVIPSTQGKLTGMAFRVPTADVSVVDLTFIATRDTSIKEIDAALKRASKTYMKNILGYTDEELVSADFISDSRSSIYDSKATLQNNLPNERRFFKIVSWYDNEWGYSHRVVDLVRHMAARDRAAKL

Q: With `Nc1nc2c(c(=O)[nH]1)N(C=O)C(CNc1ccc(C(=O)N[C@@H](CCC(=O)O)C(=O)O)cc1)CN2` (some centres unmarked) [LEU, leucovorin] as the compound, how does the fold change [1] read?
A: 1.01

Q: And the “fold change vs vehicle control” value [2]?
A: 1.15

Q: What about the “fold changes relative to vehicle control” value [3, 10] of the same compound?
A: 1.06

Q: What about the “fold changes relative to vehicle control” value ([4]; HeLa, protein TMEM33) of the same compound?
A: 0.88

Q: What about the “fold changes relative to vehicle control” value ([5]; protein PI4KA, HeLa) of the same compound?
A: 0.82

Q: What about the “fold changes relative to vehicle control” value ([6]; HeLa, protein YWHAQ) of the same compound?
A: 1.08

Q: What about the “fold change relative to vehicle control” value (DHFR-TS; [11]) of the same compound?
A: 1.39

Q: What about the “inhibition, TS” value (TS; bead mixture, HeLa cell extract) of the same compound?
A: > 56%

Q: And the “fold changes relative to vehicle control” value (TS; protein TYMS, HeLa)?
A: 0.44

Q: What about the “fold change vs vehicle control” value [7] of the same compound?
A: 0.95

Q: And the “binding to MTHFS” value [8]?
A: bound MTHFS

Q: What about the “fold changes relative to vehicle control” value ([8]; protein MTHFS, HeLa) of the same compound?
A: 0.15

Q: What about the fold change [9] of the same compound?
A: 0.78

Q: How did the fold change [1] turn out when `Nc1nc2[nH]cc(CCc3ccc(C(=O)N[C@@H](CCC(=O)O)C(=O)O)cc3)c2c(=O)[nH]1` [PTX, pemetrexed] was run?
A: 0.91

Q: And the “association with glutamate 5′-kinase (LmjF.26.2710)” value ([2]; bead mixture, Leishmania lysates)?
A: strongly associated

Q: And the “fold change vs vehicle control” value [2]?
A: 0.14

Q: What about the “fold changes relative to vehicle control” value [3] of the same compound?
A: 1.03

Q: And the “fold changes relative to vehicle control” value [4]?
A: 0.96

Q: And the “fold changes relative to vehicle control” value [5]?
A: 0.73

Q: And the “fold changes relative to vehicle control” value [6]?
A: 1.05

Q: What about the “fold change relative to vehicle control” value (DHFR-TS) of the same compound?
A: 1.08

Q: What about the “fold changes relative to vehicle control” value (TS) of the same compound?
A: 0.34

Q: And the “inhibition, TS” value (TS)?
A: > 56%

Q: What about the “fold change vs vehicle control” value [7] of the same compound?
A: 0.98

Q: What about the “fold changes relative to vehicle control” value [8] of the same compound?
A: 0.17

Q: And the “binding to MTHFS” value [8]?
A: bound MTHFS

Q: What about the “binding to dynein associated protein (Tb09.211.4920)” value ([9]; bead mixture, T. brucei lysates) of the same compound?
A: bound specifically

Q: What about the fold change [9] of the same compound?
A: 0.9

Q: Which results are given for `CCCCCCOc1ccc(Cc2cnc(N)nc2N)cc1` [compound 1]?
A: fold change - vehicle control [1]: 0.93; fold change [2]: 1.07; fold changes relative to vehicle control ([3]; protein FUS, HeLa): 1.05; fold changes relative to vehicle control ([4]; captured protein TMEM33, HeLa): 0.86; fold changes relative to vehicle control ([5]; captured protein PI4KA, HeLa): 0.71; fold changes relative to vehicle control ([6]; protein YWHAQ, HeLa): 1.54; fold change (DHFR-TS): 0.17; competition for DHFR-TS (Figure 8a) (DHFR-TS; bead mixture, L. major lysate): competed for DHFR-TS; fold changes relative to vehicle control (TS; captured protein TYMS, HeLa): 0.76; fold change - vehicle control [7]: 1.05; fold changes relative to vehicle control ([8]; captured protein MTHFS, HeLa): 0.21; fold change - vehicle control [9]: 0.67

Q: With `CCCCCCOc1cccc(Cc2cnc(N)nc2N)c1` [compound 2] as the compound, how does the “fold change - vehicle control” value [1] read?
A: 1.01

Q: And the fold change [2]?
A: 1.07

Q: What about the “fold changes relative to vehicle control” value ([3]; protein FUS, HeLa) of the same compound?
A: 1.21

Q: What about the “fold changes relative to vehicle control” value ([4]; captured protein TMEM33, HeLa) of the same compound?
A: 0.93

Q: What about the “fold changes relative to vehicle control” value ([5]; captured protein PI4KA, HeLa) of the same compound?
A: 1.14

Q: And the “fold changes relative to vehicle control” value ([6]; protein YWHAQ, HeLa)?
A: 2.29

Q: And the fold change (DHFR-TS)?
A: 0.99

Q: And the “fold changes relative to vehicle control” value (TS; captured protein TYMS, HeLa)?
A: 1.31

Q: What about the “fold change - vehicle control” value [7] of the same compound?
A: 1.11

Q: And the “fold changes relative to vehicle control” value ([8]; captured protein MTHFS, HeLa)?
A: 0.89

Q: What about the “fold change - vehicle control” value [9] of the same compound?
A: 0.91

Q: With `Nc1nc2cccc(-c3ccccc3)c2n1Cc1ccc(Cl)c(Cl)c1` [compound 3] as the compound, how does the “percentage of competition from bead binding” value ([1]; multitargeted bead mixture, free ligand 100 μM, T. brucei lysate, TB427.06.4300 GAPDH) read?
A: 3%

Q: What about the “fold change - vehicle control” value [1] of the same compound?
A: 0.99

Q: And the fold change [2]?
A: 1.05

Q: And the “fold changes relative to vehicle control” value ([3]; protein FUS, HeLa)?
A: 1.02

Q: And the “fold changes relative to vehicle control” value ([4]; captured protein TMEM33, HeLa)?
A: 1.14

Q: What about the “fold changes relative to vehicle control” value ([5]; captured protein PI4KA, HeLa) of the same compound?
A: 0.77

Q: And the “fold changes relative to vehicle control” value ([6]; protein YWHAQ, HeLa)?
A: 0.88

Q: And the fold change (DHFR-TS)?
A: 1.11

Q: What about the “fold changes relative to vehicle control” value (TS; captured protein TYMS, HeLa) of the same compound?
A: 0.99

Q: And the “percentage of competition from bead binding” value ([7]; multitargeted bead mixture, free ligand 100 μM, T. brucei lysate, TB427TMP.18.0017 CHOLINE KINASE)?
A: -1%

Q: What about the “fold change - vehicle control” value [7] of the same compound?
A: 1

Q: What about the “fold changes relative to vehicle control” value ([8]; captured protein MTHFS, HeLa) of the same compound?
A: 0.96

Q: And the “fold change - vehicle control” value [9]?
A: 0.96

Q: How did the fold change [1] turn out when `NCCOCCOCC(=O)Nc1nc2ncc(CNc3ccc(C(=O)NC(CCC(=O)O)C(=O)O)cc3)nc2c(=O)[nH]1` (centres unmarked) [compound 6] was run?
A: 0.92

Q: What about the “fold change vs vehicle control” value [2] of the same compound?
A: 1.06

Q: And the “fold changes relative to vehicle control” value [3, 10]?
A: 1.09

Q: What about the “fold changes relative to vehicle control” value ([4]; HeLa, protein TMEM33) of the same compound?
A: 1

Q: And the “fold changes relative to vehicle control” value ([5]; protein PI4KA, HeLa)?
A: 0.94

Q: And the “fold changes relative to vehicle control” value ([6]; HeLa, protein YWHAQ)?
A: 1.15

Q: What about the “fold change relative to vehicle control” value (DHFR-TS; [11]) of the same compound?
A: 1.19

Q: And the “fold changes relative to vehicle control” value (TS; protein TYMS, HeLa)?
A: 0.55

Q: And the “fold change vs vehicle control” value [7]?
A: 1.05

Q: And the “fold changes relative to vehicle control” value ([8]; protein MTHFS, HeLa)?
A: 0.5

Q: What about the fold change [9] of the same compound?
A: 0.86

Q: Which results are given for `NCCCNc1ccc(C(=O)NC(CCC(=O)O)C(=O)O)cc1` (centres unmarked) [compound 7]?
A: fold change [1]: 1.07; fold change vs vehicle control [2]: 1; fold changes relative to vehicle control [3, 10]: 1.25; fold changes relative to vehicle control ([4]; HeLa, protein TMEM33): 1.03; fold changes relative to vehicle control ([5]; protein PI4KA, HeLa): 1.02; fold changes relative to vehicle control ([6]; HeLa, protein YWHAQ): 0.86; fold change relative to vehicle control (DHFR-TS; [11]): 1.02; fold changes relative to vehicle control (TS; protein TYMS, HeLa): 1.04; fold change vs vehicle control [7]: 1.16; fold changes relative to vehicle control ([8]; protein MTHFS, HeLa): 1.03; fold change [9]: 0.68
